Source: paper PMC9234961 (Journal of Medicinal Chemistry, 2022)
Like-named read-outs stand apart in the source and are kept apart here.

Assays:
[1] = target: kinases (468) (Homo sapiens, UniProt Q8NG66); details: NEK11; 1000 nM
[2] = target: kinases (468) (Homo sapiens, UniProt Q9HBY8); details: kinase SGK2 (Entrez SGK2); compound concentration 1000 nM
[3] = target: kinases (468) (Homo sapiens, UniProt Q14164); details: IKK-epsilon (IKBKE); 1000 nM
[4] = target: kinases (468) (Homo sapiens, UniProt P43405); details: kinase SYK (Entrez SYK); compound concentration 1000 nM
[5] = target: kinases (468) (Homo sapiens, UniProt P29376); details: LTK; 1000 nM
[6] = target: kinases (468) (Homo sapiens, UniProt P35968); details: kinase VEGFR2 (Entrez KDR); compound concentration 1000 nM
[7] = target: kinases (468) (Homo sapiens, UniProt P07949); details: RET; 1000 nM
[8] = target: kinases (468) (Homo sapiens, UniProt P49841); details: GSK3B; 1000 nM
[9] = target: kinases (468) (Homo sapiens, UniProt P45983); details: JNK1 (MAPK8); 1000 nM
[10] = target: kinases (468) (Homo sapiens, UniProt Q13164); details: ERK5 (MAPK7); 1000 nM
[11] = target: kinases (468) (Homo sapiens, UniProt P52564); details: MEK6 (MAP2K6); 1000 nM
[12] = target: kinases (468) (Homo sapiens, UniProt Q86Z02); details: HIPK1; 1000 nM
[13] = target: kinases (468) (Homo sapiens, UniProt Q8TDC3); details: BRSK1; 1000 nM
[14] = target: kinases (468) (Homo sapiens, UniProt P10721, L576P); details: KIT(L576P); 1000 nM
[15] = target: kinases (468) (Homo sapiens, UniProt P53779); details: JNK3 (MAPK10); 1000 nM
[16] = target: kinases (468) (Homo sapiens, UniProt P35916); details: FLT4; 1000 nM
[17] = target: kinases (468) (Homo sapiens, UniProt Q9H2K8); details: kinase TAOK3 (Entrez TAOK3); compound concentration 1000 nM
[18] = target: kinases (468) (Homo sapiens, UniProt P51617); details: IRAK1; 1000 nM
[19] = target: kinases (468) (Homo sapiens, UniProt Q8TD19); details: NEK9; 1000 nM
[20] = target: kinases (468) (Homo sapiens, UniProt P68400); details: CSNK2A1; 1000 nM
[21] = target: kinases (468) (Homo sapiens, UniProt Q5S007); details: LRRK2; 1000 nM
[22] = target: kinases (468) (Homo sapiens, UniProt O15111); details: IKK-alpha (CHUK); 1000 nM
[23] = target: kinases (468) (Homo sapiens, UniProt Q04759); details: PRKCQ; 1000 nM
[24] = target: kinases (468) (Homo sapiens, UniProt P42345); details: MTOR; 1000 nM
[25] = target: kinases (468) (Homo sapiens, UniProt P07333); details: 1000 nM
[26] = target: kinases (468) (Homo sapiens, UniProt P54756); details: EPHA5; 1000 nM
[27] = target: kinases (468) (Homo sapiens, UniProt Q8TD08); details: ERK8 (MAPK15); 1000 nM
[28] = target: kinases (468) (Homo sapiens, UniProt Q13163); details: MEK5 (MAP2K5); 1000 nM
[29] = target: kinases (468) (Homo sapiens, UniProt P51812); details: compound concentration 1000 nM
[30] = target: kinases (468) (Homo sapiens, UniProt Q16659); details: ERK3 (MAPK6); 1000 nM
[31] = target: kinases (468) (Homo sapiens, UniProt Q96Q40); details: PFTAIRE2 (CDK15); 1000 nM
[32] = target: kinases (468) (Homo sapiens, UniProt P54646); details: AMPK-alpha2 (PRKAA2); 1000 nM
[33] = target: kinases (468) (Homo sapiens, UniProt P10721, A829P); details: KIT(A829P); 1000 nM
[34] = target: kinases (468) (Homo sapiens, UniProt P42681); details: kinase TXK (Entrez TXK); compound concentration 1000 nM

Chain of kinases (468) (Homo sapiens, UniProt P51812) (P51812 whole entry): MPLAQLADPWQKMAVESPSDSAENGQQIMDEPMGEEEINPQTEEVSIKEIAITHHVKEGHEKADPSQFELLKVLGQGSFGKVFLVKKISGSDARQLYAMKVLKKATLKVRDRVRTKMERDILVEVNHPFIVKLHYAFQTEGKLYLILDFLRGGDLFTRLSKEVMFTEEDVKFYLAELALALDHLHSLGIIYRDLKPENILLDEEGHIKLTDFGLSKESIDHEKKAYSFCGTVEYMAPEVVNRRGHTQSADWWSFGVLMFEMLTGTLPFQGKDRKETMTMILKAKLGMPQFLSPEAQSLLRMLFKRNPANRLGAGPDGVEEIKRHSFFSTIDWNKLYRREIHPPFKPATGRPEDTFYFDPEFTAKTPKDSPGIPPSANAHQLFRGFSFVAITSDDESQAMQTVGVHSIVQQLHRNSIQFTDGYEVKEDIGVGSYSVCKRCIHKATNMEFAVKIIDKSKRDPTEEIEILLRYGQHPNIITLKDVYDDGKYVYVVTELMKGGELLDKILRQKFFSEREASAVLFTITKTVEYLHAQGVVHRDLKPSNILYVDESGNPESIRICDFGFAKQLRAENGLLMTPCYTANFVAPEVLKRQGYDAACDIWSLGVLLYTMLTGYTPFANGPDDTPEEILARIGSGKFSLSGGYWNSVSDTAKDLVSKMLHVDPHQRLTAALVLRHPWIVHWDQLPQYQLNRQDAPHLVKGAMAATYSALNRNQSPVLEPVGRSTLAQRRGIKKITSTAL
Chain of kinases (468) (Homo sapiens, UniProt P07333) (P07333 20-972): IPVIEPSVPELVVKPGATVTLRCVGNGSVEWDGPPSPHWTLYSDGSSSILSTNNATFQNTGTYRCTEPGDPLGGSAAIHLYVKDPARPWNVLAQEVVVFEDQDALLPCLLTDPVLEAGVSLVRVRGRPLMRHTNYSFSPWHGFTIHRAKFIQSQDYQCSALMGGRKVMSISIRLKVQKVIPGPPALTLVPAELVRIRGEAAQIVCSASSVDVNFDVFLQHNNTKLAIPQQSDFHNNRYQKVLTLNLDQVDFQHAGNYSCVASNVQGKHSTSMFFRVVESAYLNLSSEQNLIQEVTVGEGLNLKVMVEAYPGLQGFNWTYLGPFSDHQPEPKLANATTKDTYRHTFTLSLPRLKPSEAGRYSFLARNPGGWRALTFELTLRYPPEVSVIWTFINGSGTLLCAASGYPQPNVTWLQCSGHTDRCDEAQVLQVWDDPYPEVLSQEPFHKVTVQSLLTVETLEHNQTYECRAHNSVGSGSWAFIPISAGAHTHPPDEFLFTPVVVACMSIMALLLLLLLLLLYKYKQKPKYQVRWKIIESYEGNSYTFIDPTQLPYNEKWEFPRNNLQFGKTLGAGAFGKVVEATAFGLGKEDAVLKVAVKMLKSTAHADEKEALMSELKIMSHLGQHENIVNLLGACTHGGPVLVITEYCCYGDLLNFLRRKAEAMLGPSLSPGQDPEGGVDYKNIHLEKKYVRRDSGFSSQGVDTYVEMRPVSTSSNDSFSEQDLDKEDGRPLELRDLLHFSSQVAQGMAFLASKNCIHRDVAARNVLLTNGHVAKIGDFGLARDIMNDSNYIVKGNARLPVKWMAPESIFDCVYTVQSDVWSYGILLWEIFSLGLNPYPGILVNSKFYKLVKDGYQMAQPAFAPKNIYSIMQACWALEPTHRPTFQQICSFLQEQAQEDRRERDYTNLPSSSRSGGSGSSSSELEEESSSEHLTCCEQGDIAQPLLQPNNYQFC
Chain of kinases (468) (Homo sapiens, UniProt P07949) (P07949 29-1114): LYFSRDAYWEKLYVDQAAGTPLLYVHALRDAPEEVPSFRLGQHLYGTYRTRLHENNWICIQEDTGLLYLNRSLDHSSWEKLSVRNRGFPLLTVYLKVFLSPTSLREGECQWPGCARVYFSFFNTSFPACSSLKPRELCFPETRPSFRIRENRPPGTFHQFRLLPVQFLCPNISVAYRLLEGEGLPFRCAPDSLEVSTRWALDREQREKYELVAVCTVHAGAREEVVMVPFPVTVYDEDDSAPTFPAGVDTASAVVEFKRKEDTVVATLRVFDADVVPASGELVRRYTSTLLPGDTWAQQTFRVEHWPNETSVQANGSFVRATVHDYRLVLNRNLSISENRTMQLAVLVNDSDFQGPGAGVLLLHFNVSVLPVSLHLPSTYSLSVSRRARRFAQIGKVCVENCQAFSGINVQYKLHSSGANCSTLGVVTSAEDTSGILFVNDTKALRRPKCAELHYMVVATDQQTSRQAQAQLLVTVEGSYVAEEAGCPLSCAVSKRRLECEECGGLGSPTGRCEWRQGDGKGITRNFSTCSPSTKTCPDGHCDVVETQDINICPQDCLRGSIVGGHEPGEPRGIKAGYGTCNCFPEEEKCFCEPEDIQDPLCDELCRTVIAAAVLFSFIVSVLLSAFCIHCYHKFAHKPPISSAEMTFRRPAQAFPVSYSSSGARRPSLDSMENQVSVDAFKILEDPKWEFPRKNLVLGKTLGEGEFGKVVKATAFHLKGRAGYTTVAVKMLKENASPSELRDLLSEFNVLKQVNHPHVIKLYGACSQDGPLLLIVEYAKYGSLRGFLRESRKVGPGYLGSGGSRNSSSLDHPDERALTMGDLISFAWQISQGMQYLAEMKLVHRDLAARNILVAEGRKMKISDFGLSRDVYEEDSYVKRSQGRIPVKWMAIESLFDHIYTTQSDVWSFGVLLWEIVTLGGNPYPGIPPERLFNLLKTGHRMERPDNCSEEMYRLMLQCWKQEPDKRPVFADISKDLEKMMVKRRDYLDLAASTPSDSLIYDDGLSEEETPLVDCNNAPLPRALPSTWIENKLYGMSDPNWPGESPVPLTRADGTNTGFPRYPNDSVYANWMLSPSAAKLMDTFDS
Chain of kinases (468) (Homo sapiens, UniProt P35968) (P35968 20-1356): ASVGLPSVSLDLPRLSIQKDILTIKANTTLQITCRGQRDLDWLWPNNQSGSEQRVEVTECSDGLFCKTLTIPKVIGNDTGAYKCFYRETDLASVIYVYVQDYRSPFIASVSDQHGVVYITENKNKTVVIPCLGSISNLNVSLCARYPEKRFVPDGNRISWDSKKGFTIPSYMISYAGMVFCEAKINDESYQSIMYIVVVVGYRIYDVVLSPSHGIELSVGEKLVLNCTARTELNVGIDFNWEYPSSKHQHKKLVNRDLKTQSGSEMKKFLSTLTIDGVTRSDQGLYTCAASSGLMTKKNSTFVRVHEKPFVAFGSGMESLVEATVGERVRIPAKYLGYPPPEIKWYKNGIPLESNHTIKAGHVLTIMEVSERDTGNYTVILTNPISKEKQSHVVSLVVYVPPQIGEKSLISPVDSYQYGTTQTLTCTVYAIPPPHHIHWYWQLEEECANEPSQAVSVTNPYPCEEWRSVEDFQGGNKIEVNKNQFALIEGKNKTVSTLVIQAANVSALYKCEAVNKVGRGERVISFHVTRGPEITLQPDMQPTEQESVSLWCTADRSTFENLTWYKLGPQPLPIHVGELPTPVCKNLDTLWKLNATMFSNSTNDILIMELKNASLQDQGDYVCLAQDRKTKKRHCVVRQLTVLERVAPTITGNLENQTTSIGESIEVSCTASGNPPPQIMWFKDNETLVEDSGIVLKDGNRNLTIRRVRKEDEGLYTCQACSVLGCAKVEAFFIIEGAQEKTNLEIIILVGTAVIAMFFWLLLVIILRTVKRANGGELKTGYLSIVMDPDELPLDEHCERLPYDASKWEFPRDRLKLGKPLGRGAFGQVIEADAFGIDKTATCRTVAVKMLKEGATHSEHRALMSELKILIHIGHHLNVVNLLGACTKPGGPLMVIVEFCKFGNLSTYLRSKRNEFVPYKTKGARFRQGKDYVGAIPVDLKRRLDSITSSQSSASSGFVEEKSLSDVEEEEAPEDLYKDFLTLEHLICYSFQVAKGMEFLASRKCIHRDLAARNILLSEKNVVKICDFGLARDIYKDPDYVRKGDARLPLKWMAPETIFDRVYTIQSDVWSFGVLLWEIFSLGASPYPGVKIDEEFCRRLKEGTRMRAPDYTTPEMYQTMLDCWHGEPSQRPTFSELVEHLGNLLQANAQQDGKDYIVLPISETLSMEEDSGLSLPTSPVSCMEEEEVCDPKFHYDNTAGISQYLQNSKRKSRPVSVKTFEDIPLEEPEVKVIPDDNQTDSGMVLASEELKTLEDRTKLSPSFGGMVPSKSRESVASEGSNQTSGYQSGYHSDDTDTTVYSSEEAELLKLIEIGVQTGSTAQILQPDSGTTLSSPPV
Chain of kinases (468) (Homo sapiens, UniProt O15111) (O15111 whole entry): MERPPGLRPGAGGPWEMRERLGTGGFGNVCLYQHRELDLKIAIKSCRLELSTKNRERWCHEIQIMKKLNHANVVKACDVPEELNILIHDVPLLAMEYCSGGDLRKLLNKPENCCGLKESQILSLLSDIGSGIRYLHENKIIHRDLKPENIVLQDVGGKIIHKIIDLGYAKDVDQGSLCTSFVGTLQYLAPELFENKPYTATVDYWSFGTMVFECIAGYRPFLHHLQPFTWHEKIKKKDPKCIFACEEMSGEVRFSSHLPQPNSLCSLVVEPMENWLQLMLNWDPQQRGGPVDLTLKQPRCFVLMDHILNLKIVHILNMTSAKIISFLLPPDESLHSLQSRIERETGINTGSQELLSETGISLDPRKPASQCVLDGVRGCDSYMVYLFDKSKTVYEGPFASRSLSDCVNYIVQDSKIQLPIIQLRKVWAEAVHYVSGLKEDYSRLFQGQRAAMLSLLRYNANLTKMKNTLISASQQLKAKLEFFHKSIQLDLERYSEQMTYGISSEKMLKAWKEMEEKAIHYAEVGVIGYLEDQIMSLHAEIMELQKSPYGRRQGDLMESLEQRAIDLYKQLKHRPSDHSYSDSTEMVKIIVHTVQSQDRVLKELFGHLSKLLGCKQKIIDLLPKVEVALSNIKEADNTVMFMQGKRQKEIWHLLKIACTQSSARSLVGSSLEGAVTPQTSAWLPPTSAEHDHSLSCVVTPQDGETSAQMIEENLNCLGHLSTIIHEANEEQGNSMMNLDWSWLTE

C[C@H]1C[C@@H](O)CN(c2ncc(Cl)c(Nc3ccc4c(c3)c3c(c(=O)n4C)OCC(F)(F)[C@H](C4CC4)N3)n2)C1 [CCT373566_9A]
Percent Control [1]: 95% | Percent Control [2]: 86% | Percent Control [3]: 100% | Percent Control [4]: 98% | Percent Control [5]: 100% | Percent Control [6]: 95% | Percent Control [7]: 99% | Percent Control [8]: 94% | Percent Control [9]: 85% | Percent Control [10]: 97% | Percent Control [11]: 89% | Percent Control [12]: 98% | Percent Control [13]: 96% | Percent Control [14]: 100% | Percent Control [15]: 87% | Percent Control [16]: 100% | Percent Control [17]: 91% | Percent Control [18]: 77% | Percent Control [19]: 95% | Percent Control [20]: 91% | Percent Control [21]: 98% | Percent Control [22]: 99% | Percent Control [23]: 100% | Percent Control [24]: 87% | Percent Control ([25]; CSF1R-autoinhibited): 77% | Percent Control ([25]; CSF1R): 100% | Percent Control [26]: 98% | Percent Control [27]: 95% | Percent Control [28]: 100% | Percent Control ([29]; kinase RSK2(Kin.Dom.1-N-terminal) (Entrez RPS6KA3)): 100% | Percent Control ([29]; kinase RSK2(Kin.Dom.2-C-terminal) (Entrez RPS6KA3)): 100% | Percent Control [30]: 100% | Percent Control [31]: 98% | Percent Control [32]: 100% | Percent Control [33]: 100% | Percent Control [34]: 99%
